Results reported in patent publication US20250127790A1, “COMBINATION THERAPY USING VPS34 INHIBITORS” (Deciphera Pharmaceuticals, LLC, priority 2021, published 2025).

Tests used:
[1] = system: Renca renal cell carcinoma cells; test: qRT-PCR, combination with ADU-S100, Renca cells; format: cell-based, Mouse; conditions: for IFNB1 mRNA expression: 2 μM Compound 1, 10 μM ADU-S100, 4 h; for CCL5 mRNA expression / CXCL10 mRNA expression: 2 μM Compound 1, 10 μM ADU-S100, 24 h; for increase in IFNB1, CCL5 and CXCL10 with siRNA knockdown of STING: siSTING
Description: Renca cells were grown in RPMI-1640 medium containing 10% fetal bovine serum. Cells were then incubated for 2 days at 37 degrees Celsius, 5% CO2, and 95% humidity. Renca cells were reversely transfected with scrambled siRNA control (siSCR) or siRNA targeting STING (siSTING). After transfection for 48 h, cells were treated with DMSO control, 2 μM Compound 1 or 2 μM Compound 2 in combination with 10 μM ADU-S100 for 4 h (for Ifnb1) or 24 h (Ccl5 and Cxcl10). Cells were washed with PBS and RNA was isolated using the PureLink RNA kit (#12183018A, Thermo Fisher Scientific) according to the manufacturer's protocol. Genomic DNA was removed using DNA-binding columns (RNeasy plus kit, #74134, Qiagen) and/or DNase treatment (#12185010, Thermo Fisher Scientific). RNA was quantified using NanoDrop (Thermo Fisher Scientific) and 50 ng/μL RNA was used for cDNA synthesis with SuperScript IV VILO Master Mix (#11756050, Thermo Fisher Scientific). Quantitative RT-PCR (qRT-PCR) was run with diluted cDNA (1:25 or 1:12.5), PowerUp SYBR Green Master Mix (#A25741, Thermo Fisher Scientific), and 200 nM primers (see below) on a CFX Connect RT-PCR system (BioRad). Data was analyzed using the ΔΔCT method. Results are mean±SEM of three independent experiments.

[2] = system: 786-O renal cell carcinoma cells; test: Western blot, STING pathway proteins with siRNA knockdown, 786-O cells; format: cell-based; conditions: 24 h; for CGAS level / STING level / p-IRF3 level / p-STAT1 level / p-TKB1 level / p-IRF3 and p-STAT1 levels with siRNA knockdown of CGAS / p-TKB1 level with siRNA knockdown of CGAS / p-IRF3 and p-STAT1 levels with siRNA knockdown of STING / p-TBK1 level with siRNA knockdown of STING: 2 μM; for CGAS level / STING level / p-IRF3 level / p-STAT1 level / p-TKB1 level: vs DMSO alone; for p-IRF3 and p-STAT1 levels with siRNA knockdown of CGAS / p-TKB1 level with siRNA knockdown of CGAS: siCGAS; for p-IRF3 and p-STAT1 levels with siRNA knockdown of CGAS / p-TKB1 level with siRNA knockdown of CGAS / p-IRF3 and p-STAT1 levels with siRNA knockdown of STING / p-TBK1 level with siRNA knockdown of STING: vs compound alone; for p-IRF3 and p-STAT1 levels with siRNA knockdown of STING / p-TBK1 level with siRNA knockdown of STING: siSTING; for STING level with siRNA knockdown of TBK1 / CGAS level with siRNA knockdown of TBK1: siTBK1, 2 μM; for CGAS level with siRNA knockdown of TBK1: vs DMSO
Description: 786-O cells were transfected with scrambled siRNA control (siSCR) or siRNA targeting TBK1 (siTBK1), STING (siSTING) or CGAS (siCGAS). After 48 h cells were treated with DMSO or 2 μM of VPS34 inhibitor (Compound 1 or Compound 2) for 24 h. 786-O cells were washed in PBS and lysed in RIPA buffer (50 mM Tris HCl pH=7.4, 150 mM NaCl, 1% Triton X-100, 0.5% Na-deoxycholate, 0.1% SDS) containing protease inhibitor cocktail (#11836170001, Roche), and phosphatase inhibitor (#11836170001, Roche) for 10 min at 4° C. After centrifugation at 15000 rpm for 10 min at 4° C., the supernatant was obtained, and protein concentration was quantified using BCA assay (#23225, Thermo Fisher). Equal amounts were mixed with 0.1 M DTT and LDS Sample Buffer (#84788, Thermo Fisher), heated for 5 min at 90° C. before loading onto 4-12% Bis-Tris gels. Proteins were transferred to nitrocellulose membranes. Membranes were blocked in 5% non-fat dry milk in TBS with 0.05% Tween (TBS-T) for 1 h at RT, washed in TBS-T, and probed with primary antibodies shaking overnight at 4° C. After washing in TBS-T, membranes were incubated with IRDye 800CW goat anti-rabbit or IRDye 680RD donkey anti-mouse IgG (H+L) (#926-32211 and #926-68072, respectively, LI-COR, 1:10,000 dilution) secondary antibody in Intercept blocking buffer (#927-60001, LI-COR) for 1 h at RT. After washing in TBS-T, membranes were imaged using the Odyssey CLx (LI-COR). Band intensities were quantified using Image Studio Lite software version 5.2.5 (LI-COR).

4T1 breast cancer cells = test: Cytokine secretion assay, combination with cGAMP, 4T1 cells; format: cell-based, mouse; conditions: 24 hours, 5 μM Compound 1 or 10 μM Compound 2, 10 mg/ml cGAMP
Description: 4T1 cells were treated for 24 hours with DMSO or VPS34 inhibitors (5 μM Compound 1 or 10 μM Compound 2) in combination with 10 mg/ml STING agonist cGAMP (green bars). Cells were washed with PBS and RNA was isolated using the PureLink RNA kit (#12183018A, Thermo Fisher Scientific) according to the manufacturer's protocol. Genomic DNA was removed using DNA-binding columns (RNeasy plus kit, #74134, Qiagen) and/or DNase treatment (#12185010, Thermo Fisher Scientific). RNA was quantified using NanoDrop (Thermo Fisher Scientific) and 50 ng/μL RNA was used for cDNA synthesis with SuperScript IV VILO Master Mix (#11756050, Thermo Fisher Scientific). Quantitative RT-PCR (qRT-PCR) was run with diluted cDNA (1:25 or 1:12.5), PowerUp SYBR Green Master Mix (#A25741, Thermo Fisher Scientific), and 200 nM primers (see below) on a CFX Connect RT-PCR system (BioRad). Data was analyzed using the ΔΔCT method. Results are mean±SEM of three independent experiments.
Cell culture medium was centrifuged at 1600 rpm for 10 min at 4° C. and obtained supernatant stored at −80° C. Cytokine levels were quantified using following Meso Scale Discovery (MSD) assays: mouse U-PLEX RANTES/CCL5 (#K152A2K) and U-PLEX IP-10/CXCL10 (#K152UFK). Assays were run on the SECTOR Quickplex Imager and analyzed using Discovery Workbench version 4.0 (MSD).

Structure (SMILES)	IFNB1 mRNA expression [1]	CCL5 mRNA expression [1]	CXCL10 mRNA expression [1]	increase in IFNB1, CCL5 and CXCL10 with siRNA knockdown of STING [1]	CGAS level [2]	STING level [2]	p-IRF3 level [2]	p-STAT1 level [2]	p-TKB1 level [2]	p-IRF3 and p-STAT1 levels with siRNA knockdown of CGAS [2]	p-TKB1 level with siRNA knockdown of CGAS [2]	p-IRF3 and p-STAT1 levels with siRNA knockdown of STING [2]	p-TBK1 level with siRNA knockdown of STING [2]	STING level with siRNA knockdown of TBK1 [2]	CGAS level with siRNA knockdown of TBK1 [2]	CCL5 protein secretion (4T1 breast cancer cells)	CXCL10 protein secretion (4T1 breast cancer cells)
Nc1ncnc2c1ncn2[C@@H]1O[C@@H]2COP(=O)([S-])O[C@@H]3[C@H](O)[C@@H](COP([O-])(=S)O[C@H]2[C@H]1O)O[C@H]3n1cnc2c(N)ncnc21.[Na+].[Na+] (stereo partly shown) [ADU-S100, reference compound]	increased	increased	increased	blocked	–	–	–	–	–	–	–	–	–	–	–	–	–
C[C@@H]1COCCN1c1cc(N2CCCC[C@@H]2C(F)(F)F)[nH]c(=O)c1 [Compound 1, 4-((R)-3-methylmorpholino)-6-((R)-2-(trifluoromethyl)piperidin-1-yl)pyridin-2(1H)-one]	did not significantly increase	did increase	did increase	blocked	mild increase	increase	strong increases	strong increases	increase	complete loss	decrease	complete loss	decrease	increase	increase	increased	increased
C[C@@H]1COCCN1c1cc(=O)n2c(n1)N(Cc1cncc(Cl)c1)[C@H](C(F)(F)F)CC2 [Compound 2, (S)-9-((5-chloropyridin-3-yl)methyl)-2-((R)-3-methylmorpholino)-8-(trifluoromethyl)-6,7,8,9-tetrahydro-4H-pyrimido[1,2-a]pyrimidin-4-one]	–	–	–	–	mild increase	increase	strong increases	strong increases	increase	complete loss	decrease	complete loss	decrease	increase	increase	increased	increased
